Earlier results as cited in US20050000529A1, “Method and compositions for imparting cooling effect to tobacco products” (priority 2001, published 2005).
“Also recorded” adds a separate entry of the source.

What was measured:
[1] = taste testing; comparison with related compounds
[2] = tap water, triangle test
[3] = tap water, triangle test; remark: listed apart in the source

Compound | cooling activity (in words) [1] | Odor Threshold [2] [mg/kg] | Cooling Threshold [3] [mg/kg]
CC1=C(N2CCCC2)C(=O)CC1 [Compound 1, 3-methyl-2-(1-pyrrolidinyl)-2-cyclopenten-1-one] | long lasting sensation of coolness; also recorded: high degree of cooling effect | 43.5 to 72.5 | 29.0 to 43.5
CC1=C(N2CCCC2)C(=O)OC1C (centres unmarked) [Compound 26, 4,5-dimethyl-3-(1-pyrrolidinyl)-2-(5H)-furanone] | dramatically increases cooling activity | 32.0 to 64.0 | 2.0 to 4.0
CCN(CC)C1=C(C)CCC1=O [Compound 4, 3-methyl-2-diethylamino-2-cyclopenten-1-one] |  | 2.0 to 3.0 | 30.0 to 50.0
CCCCCCN(CCCCCC)C1=CCC(C)C1=O (centres unmarked) [Compound 8, 5-methyl-2-dihexylamino-2-cyclopenten-1-one] | completely diminishes the cooling activity |  | 
CC1CCC=C(N2CCCC2)C1=O (centres unmarked) [Compound 18, 6-methyl-2-(1-pyrrolidinyl)-2-cyclohexen-1-one] |  | 3.4 to 5.6 | 26.9 to 44.8
CC1=C(N2CCCC2)C(=O)C(C)C1 (centres unmarked) [Compound 11, 3,5-dimethyl-2-(1-pyrrolidinyl)-2-cyclopenten-1-one] | small effect on cooling activity | 16.0 to 27.0 | 32.5 to 53.5
COC(=O)C1CCCN1C1=CC[C@H](C)C1=O (stereo partly drawn) [Compound 21, (S)-5-methyl-2-(2-methoxycarbonyl-1-pyrrolidinyl)-2-cyclopenten-1-one] | substantially decreases the cooling effect |  | 112.0 to 188.0
CC1=C(N2CCCC2)C(=O)CC(C)(C)C1 [Compound 17, 3,5,5-trimethyl-2-(1-pyrrolidinyl)-2-cyclohexen-1-one] |  | 50.2 to 83.6 | 1605.0 to 2675.0
CCC1CC=C(N2CCCC2)C1=O (centres unmarked) [Compound 9, 5-ethyl-2-(1-pyrrolidinyl)-2-cyclopenten-1-one] | significant increase in cooling activity | 13.4 to 22.4 | 26.7 to 42.5
CC1CC=C(N2CCCCC2)C1=O (centres unmarked) [Compound 5, 5-methyl-2-(1-piperidinyl)-2-cyclopenten-1-one] |  | 12.0 to 20.0 | 16.0 to 24.0
O=C1CCCC=C1N1CCCC1 [Compound 15, 2-(1-pyrrolidinyl)-2-cyclohexen-1-one] | significantly decreases cooling activity | 62.0 to 106.0 | 495.0 to 830.0
CC1=C(N2CCCC2)C(=O)CO1 [Compound 23, 5-methyl-4-(1-pyrrolidinyl)-3-(2H)-furanone] | strong increase in cooling activity; also recorded: high degree of cooling effect |  | 1.5 to 3.0
CC1=C(N2CCCC2)C(=O)OC1 [Compound 25, 4-methyl-3-(1-pyrrolidinyl)-2-(5H)-furanone] | dramatically increases cooling activity; also recorded: high degree of cooling effect |  | 0.05 to 0.06
CC1=C(N2CCCC2)C(=O)CC1C (centres unmarked) [Compound 12, 3,4-dimethyl-2-(1-pyrrolidinyl)-2-cyclopenten-1-one] |  | 25.7 to 42.8 | 51.3 to 85.5
CC1CC=C(N2CCCC2)C1=O (centres unmarked) [Compound 2, 5-methyl-2-(1-pyrrolidinyl)-2-cyclopenten-1-one] | long lasting sensation of coolness; also recorded: high degree of cooling effect | 2.6 to 5.2 | 4.5 to 9.0
CC1C=C(N2CCCC2)C(=O)C1C (centres unmarked) [Compound 10, (E)-4,5-dimethyl-2-(1-pyrrolidinyl)-2-cyclopenten-1-one] | significant increase in cooling activity | 136.0 to 226.6 | 68.0 to 113.3
CCCCN(CCCC)C1=CCC(C)C1=O (centres unmarked) [Compound 7, 5-methyl-2-dibutylamino-2-cyclopenten-1-one] | drastically decreases the cooling activity | 2.4 to 2.8 | 48.4 to 67.8
CCN(CC)C1=CCC(C)C1=O (centres unmarked) [Compound 6, 5-methyl-2-diethylamino-2-cyclopenten-1-one] | does not substantially decrease the cooling activity | 6.0 to 9.0 | 12.0 to 20.0
CC1CC(C)(C)C=C(N2CCCC2)C1=O (centres unmarked) [Compound 19, 4,4,6-trimethyl-2-(1-pyrrolidinyl)-2-cyclohexen-1-one] | significantly decreases cooling activity | 553.0 to 922.0 | 2213.0 to 3688.0
O=C1C=C(N2CCCC2)CC1 [Compound 13, 3-(1-pyrrolidinyl)-2-cyclopenten-1-one] | loss of cooling activity | 234.0 to 390.0 | 
CC1=C(N2CCCCC2)C(=O)CC1 [Compound 3, 3-methyl-2-(1-piperidinyl)-2-cyclopenten-1-one] |  | 80.0 to 120.0 | 60.0 to 100.0
CC1=C(N2CCCC2)C(=O)CCC1 [Compound 16, 3-methyl-2-(1-pyrrolidinyl)-2-cyclohexen-1-one] |  | 45.2 to 75.4 | 90.5 to 150.8
CC1CC=C(N2CCOCC2)C1=O (centres unmarked) [Compound 20, 5-methyl-2-(1-morpholino)-2-cyclopenten-1-one] | substantially decreases the cooling effect | 935.0 to 1558.0 | 467.0 to 700.8
CC1=C(N2CCC[C@H]2C(=O)O)C(=O)CC1 [Compound 22, (S)-3-methyl-2-(2-carboxy-l-pyrrolidinyl)-2-cyclopenten-1-one] | substantially decreases the cooling effect |  | 490.0 to 735.0
CC1=C(N2CCCC2)C(=O)C(C)O1 (stereo not drawn) [Compound 24, 2,5-dimethyl-4-(l-pyrrolidinyl)-3-(2H)-furanone] |  | 30.0 to 60.0 | 100.0 to 140.0
CC1=C(N2CCCC2)CCC1=O [Compound 14, 2-methyl-3-(1-pyrrolidinyl)-2-cyclopenten-1-one] | loss of cooling activity | 92.0 to 138.0 | 
